The values that follow are results of earlier work, collected in patent US20040115749A1, “Cardiovascular disease and thrombotic risk diagnostic tests” (priority 2001, published 2004).

The test system of this data set is ELISA kit for 13(S)-HODE (anti-13(S)-HODE specific antibody). The note with it: commercial ELISA kit for 13(S)-HODE.

For the compound `CCCCC[C@@H](O)/C=C/C=C\CCCCCCCC(=O)O` [13(R)-HODE], the cross-reactivity was 10%.
